Results taken from US20250382239A1, “COMPOSITIONS FOR ENHANCING NITROGEN FERTILIZERS BY INCORPORATING ANTI-OXIDANT MOIETIES AND METHODS FOR USE THEREOF” (Verdesian Life Sciences U.S., LLC, priority 2022, published 2025).

Test system: urease enzyme
Assay: Draeger tube NH3 volatilization screening of urease inhibitor compositions applied on urea prills on soil
Set-up: NH3 Draeger tube reading: unit not given here
Conditions: for urease enzyme inhibitory properties: exposed to soil alone or in combination with urea-containing fertilizer
Method: tBHQ (main active ingredient (AI)), solvents, additives (co-Actives) were obtained from commercial vendors. Draeger tube protocol was developed and used soils from NCSU Ag research facility at Oxford, North Carolina. Samples were prepared by co-dissolution in the appropriate solvent by rolling on a sample roller for 2-4 hours at ambient temperature and allowed to stand over weekend to make sure there was no haziness and/or precipitate that developed. Typical sample size was 4-4.5 g in a 12 mL cylindrical glass vial.
The following candidates were tBHQ+[x co-Active+y Solvent] where x and y varied.

CC(C)(C)c1cc(O)ccc1O [tert-butylhydroquinone]
urease enzyme inhibitory properties: strong urease enzyme inhibitory properties

NC(N)=O [Urea]
NH3 Draeger tube reading (Round 10 (Table 11), 18 hrs): 0 | NH3 Draeger tube reading (Round 10 (Table 11), 24 hrs): 0 | NH3 Draeger tube reading (Round 10 (Table 11), 42 hrs): 125 | NH3 Draeger tube reading (Round 10 (Table 11), 48 hrs): 150 | NH3 Draeger tube reading (Round 10 (Table 11), 66 hrs): 150 | NH3 Draeger tube reading (Round 10 (Table 11), 90 hrs): 150 | NH3 Draeger tube reading (Round 10 (Table 11), 120 hrs): 150 | NH3 Draeger tube reading (Round 10 (Table 11), 187 hrs): 150 | NH3 Draeger tube reading (Round 10 (Table 11), 210 hrs): 150 | NH3 Draeger tube reading (Round 10 (Table 11), 266 hrs): 150 | NH3 Draeger tube reading (Round 10 (Table 11), 288 hrs): 150 | NH3 Draeger tube reading (Round 10 (Table 11), 330 hrs): 150 | NH3 Draeger tube reading (Round 10 (Table 11), 354 hrs): 150 | NH3 Draeger tube reading (Round 10 (Table 11), 381 hrs): 150 | NH3 Draeger tube reading (Round 10 (Table 11), […]): 150 | NH3 Draeger tube reading (Round 11 (Table 12), 16 hrs): 0 | NH3 Draeger tube reading (Round 11 (Table 12), 24 hrs): 0 | NH3 Draeger tube reading (Round 11 (Table 12), 40 hrs): 12 | NH3 Draeger tube reading (Round 11 (Table 12), 48 hrs): 36 | NH3 Draeger tube reading (Round 11 (Table 12), 64 hrs): 125.4 | NH3 Draeger tube reading (Round 11 (Table 12), 88 hrs): 150 | NH3 Draeger tube reading (Round 11 (Table 12), 160 hrs): 150 | NH3 Draeger tube reading (Round 11 (Table 12), 184 hrs): 150 | NH3 Draeger tube reading (Round 11 (Table 12), 232 hrs): 150 | NH3 Draeger tube reading (Round 11 (Table 12), 256 hrs): 150 | NH3 Draeger tube reading (Round 11 (Table 12), […]): 150 | NH3 Draeger tube reading (Round 12 (Table 13), 15 hrs): 0 | NH3 Draeger tube reading (Round 12 (Table 13), 23 hrs): 0 | NH3 Draeger tube reading (Round 12 (Table 13), 39 hrs): 31 | NH3 Draeger tube reading (Round 12 (Table 13), 48 hrs): 118 | NH3 Draeger tube reading (Round 12 (Table 13), 66 hrs): 150 | NH3 Draeger tube reading (Round 12 (Table 13), 90 hrs): 150 | NH3 Draeger tube reading (Round 12 (Table 13), 111 hrs): 150 | NH3 Draeger tube reading (Round 12 (Table 13), 159 hrs): 150 | NH3 Draeger tube reading (Round 12 (Table 13), 192 hrs): 150 | NH3 Draeger tube reading (Round 12 (Table 13), 216 hrs): 150 | NH3 Draeger tube reading (Round 12 (Table 13), 239 hrs): 150 | NH3 Draeger tube reading (Round 12 (Table 13), 260 hrs): 150 | NH3 Draeger tube reading (Round 12 (Table 13), 283 hrs): 150 | NH3 Draeger tube reading (Round 12 (Table 13), 304 hrs): 150 | NH3 Draeger tube reading (Round 12 (Table 13), 327 hrs): 150 | NH3 Draeger tube reading (Round 12 (Table 13), 357 hrs): 150 | NH3 Draeger tube reading (Round 12 (Table 13), 375 hrs): 150 | NH3 Draeger tube reading (Round 12 (Table 13), […]): 150

Oc1ccc(O)cc1 [hydroquinone, reference compound]
urease enzyme inhibitory properties: significantly less efficacious urease enzyme inhibition properties
